Laboratory results reported in patent US7244734B2, “Hexa- and octahydro-pyrido[1,2-a]pyrazine derivatives with NK1 antagonistic activity” (Solvay Pharmaceuticals B.V., priority 2003, dated 2007).

Assays:
[1] = test system: NK1 agonist-induced gerbil foot-tapping; test: NK1 agonist (GR 73632)-induced gerbil foot-tapping; conditions: Meriones unguiculatus, po, 60 min before anaesthesia; GR 73632 i.c.v.; male gerbils; read-out: In vivo antagonism Gerbil foot tapping p.o. ED50
Protocol: Concentration-response relationships were constructed by plotting cAMP conversion against compound concentration and IC50 values were calculated by four-parameter logistic regression. Antagonist potencies (pA2) values were calculated using: […] in which the IC50 of the test compound was obtained from concentration-effect relationships, [SP] is the concentration of substance P (in mol/l; typically 10 nM), and the EC50 is the potency of substance P at human cloned NK1 receptors. NK1 Agonist—Induced Gerbil Foot-Tapping
Therefore, we have used this model to assess the in vivo activity of the compounds of the invention.
60 min prior to anaesthesia with N2O (0.8 L/min), halothane (3%) and O2 (0.8 L/min) male gerbils (40-60 g; Charles River) received an injection of vehicle or test compound (p.o.). Upon successful narcosis the anaesthetic was adjusted to N2O (0.6 L/min), halothane (1.5%) and O2 (0.6 L/min) and a midline scalp incision made. GR 73632 was infused into the cerebroventricular space (AP−0.5 mm, L−1.2 mm, and vertical−4.5 mm from bregma). Following recovery from anaesthesia (about 3-4 min) the foot tapping response was recorded for 5 minutes. The predefined criterion for antagonism of this response was defined as inhibition of foot tapping for ≧5 min.

[2] = target: T1, human NK1 receptor (Homo sapiens, UniProt P25103); test: Receptor binding for human NK1 receptors ([3H]-substance P displacement, CHO cell membranes); conditions: human NK1 receptor in CHO membranes, read-out: affinity NK-1 binding pKi (converted)
T1 construct: expressed in transfected cells; membranes
T1 sequence (P25103 whole entry): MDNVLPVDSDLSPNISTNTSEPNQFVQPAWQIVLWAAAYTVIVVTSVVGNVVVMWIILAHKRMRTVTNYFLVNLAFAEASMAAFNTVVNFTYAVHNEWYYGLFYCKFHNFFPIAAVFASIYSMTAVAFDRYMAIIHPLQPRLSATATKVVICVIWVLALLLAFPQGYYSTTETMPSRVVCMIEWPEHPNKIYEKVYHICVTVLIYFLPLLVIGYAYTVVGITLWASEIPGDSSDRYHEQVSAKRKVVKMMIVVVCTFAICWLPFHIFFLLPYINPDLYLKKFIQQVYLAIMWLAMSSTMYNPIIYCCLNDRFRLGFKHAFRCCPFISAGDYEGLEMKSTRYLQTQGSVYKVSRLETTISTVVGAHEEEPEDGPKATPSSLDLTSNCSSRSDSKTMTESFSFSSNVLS
Protocol: Receptor Binding for Human NK1 Receptors
Affinity of the compounds for human NK1 receptors was assessed using radio-receptor binding assays. Membrane preparations were prepared from Chinese Hamster Ovarium fibroblast (CHO) cells in which the human NK1 receptor was stably expressed. Membranes were incubated with [^3H]-substance P in the absence or the presence of specified concentrations of the compounds, diluted in a suitable buffer in presence of peptidase inhibitor for 10 min at 25° C. Separation of bound radioactivity from free was done by filtration over Whatman GF/B glass fiber filters with two 5 sec washings. Bound radioactivity was counted by liquid scintillation counting using a Betaplate counter. Measured radioactivity was plotted against the concentration of the displacing test compound and displacement curves were calculated by four-parameter logistic regression, resulting in IC50 values, i.e. that concentration of displacing compound by which 50% of the radioligand is displaced. Affinity pKI values were calculated by correcting the IC50 values for radioligand concentration and its affinity for the human NK1 receptor according to the Cheng-Prusoff equation: pKi=−log [IC50/(1+S/Kd)] in which the IC50 is as described above, S is the concentration [^3H]-substance P used in the assay expressed in mol/l, and Kd is the equilibrium dissociation constant of [^3H]-substance P for human NK1 receptors (in mol/l). cAMP Measurements

Row | Compound | ED50 [1] [mg/kg] | Ki [2] [nM]
1 | O=C(c1cc(C(F)(F)F)cc(C(F)(F)F)c1)N1C[C@H]2CCC(c3ccncc3)=CN2C[C@H]1Cc1c[nH]c2ccccc12 [Compound 1, (3R,9aR)-(3,5-bis(trifluoromethyl)phenyl)-[3-(1H-indol-3-ylmethyl)-7-pyridin-4-yl-1,3,4,8,9,9a-hexahydro-pyrido[1,2-a]pyrazin-2-yl]-methanone] | 1.7 | 15.8
2 | O=C(c1cc(C(F)(F)F)cc(C(F)(F)F)c1)N1C[C@H]2CCC(c3cccnc3)=CN2C[C@H]1Cc1c[nH]c2ccccc12 [Compound 2, (3R,9aR)-(3,5-bis(trifluoromethyl)phenyl)-[3-(1H-indol-3-ylmethyl)-7-pyridin-3-yl-1,3,4,8,9,9a-hexahydro-pyrido[1,2-a]pyrazin-2-yl]-methanone] | – | 20
3 | O=C(c1cc(C(F)(F)F)cc(C(F)(F)F)c1)N1C[C@H]2CCC(c3ccccn3)=CN2C[C@H]1Cc1c[nH]c2ccccc12 [Compound 3, (3R,9aR)-(3,5-bis(trifluoromethyl)phenyl)-[3-(1H-indol-3-ylmethyl)-7-pyridin-2-yl-1,3,4,8,9,9a-hexahydro-pyrido[1,2-a]pyrazin-2-yl]-methanone] | 2.2 | 3.16
4 | O=C(c1cc(C(F)(F)F)cc(C(F)(F)F)c1)N1C[C@H]2CCC(c3cncnc3)=CN2C[C@H]1Cc1c[nH]c2ccccc12 [Compound 4, (3R,9aR)-(3,5-bis(trifluoromethyl)phenyl)-[3-(1H-indol-3-ylmethyl)-7-pyrimidin-5-yl-1,3,4,8,9,9a-hexahydro-pyrido[1,2-a]pyrazin-2-yl]-methanone] | – | 7.94
5 | O=C(c1cc(C(F)(F)F)cc(C(F)(F)F)c1)N1C[C@H]2CCC(c3cnccn3)=CN2C[C@H]1Cc1c[nH]c2ccccc12 [Compound 5, (3R,9aR)-(3,5-bis(trifluoromethyl)phenyl)-[3-(1H-indol-3-ylmethyl)-7-pyrazin-2-yl-1,3,4,8,9,9a-hexahydro-pyrido[1,2-a]pyrazin-2-yl]-methanone] | – | 2.51
6 | O=C(c1cc(C(F)(F)F)cc(C(F)(F)F)c1)N1C[C@H]2CCC(c3ncccn3)=CN2C[C@H]1Cc1c[nH]c2ccccc12 [Compound 6, (3R,9aR)-(3,5-bis(trifluoromethyl)phenyl)-[3-(1H-indol-3-ylmethyl)-7-pyrimidin-2-yl-1,3,4,8,9,9a-hexahydro-pyrido[1,2-a]pyrazin-2-yl]-methanone] | – | 1.58
7 | O=C(c1cc(C(F)(F)F)cc(C(F)(F)F)c1)N1C[C@H]2CCC(c3nccs3)=CN2C[C@H]1Cc1c[nH]c2ccccc12 [Compound 7, (3R,9aR)-(3,5-bis(trifluoromethyl)phenyl)-[3-(1H-indol-3-ylmethyl)-7-thiazol-2-yl-1,3,4,8,9,9a-hexahydro-pyrido[1,2-a]pyrazin-2-yl]-methanone] | 3.4 | 0.631
